Key:
Assay in all cases: relative viability (nuclei count vs DMSO), 5 days (fraction); higher = more cells survive
Selisistat + Lapatinib = compound: C1CC(C2=C(C1)C3=C(N2)C=CC(=C3)Cl)C(=O)N [Selisistat] + CS(=O)(=O)CCNCc1ccc(-c2ccc3ncnc(Nc4ccc(OCc5cccc(F)c5)c(Cl)c4)c3c2)o1 [Lapatinib] (partner 2 µM)
Outline: (§1)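 Lung cancer cell lines in 1536-well plates got either a single drug or a fixed anchor-drug dose together with five library-drug doses (not always all listed) in √10 steps, by pin tool, on the day after seeding. Nuclei were counted after 5 days, and relative viability is the treated-to-vehicle ratio of nuclei counts. Values are medians of duplicate plates.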

Selisistat + Foretinib = compound: C1CC(C2=C(C1)C3=C(N2)C=CC(=C3)Cl)C(=O)N [Selisistat] + COc1cc2c(Oc3ccc(NC(=O)C4(C(=O)Nc5ccc(F)cc5)CC4)cc3F)ccnc2cc1OCCCN1CCOCC1 [Foretinib] (partner 0.25 µM)
Outline: as §1

Serdemetan + OSI-027 = compound: c1ccc2c(CCNc3ccc(Nc4ccncc4)cc3)c[nH]c2c1 [Serdemetan] + COc1cccc2cc(-c3nc([C@H]4CC[C@H](C(=O)O)CC4)n4ncnc(N)c34)[nH]c12 [OSI-027] (partner 0.5 µM)
Outline: as §1

Serdemetan + AZD7762 = compound: c1ccc2c(CCNc3ccc(Nc4ccncc4)cc3)c[nH]c2c1 [Serdemetan] + NC(=O)Nc1cc(-c2cccc(F)c2)sc1C(=O)N[C@H]1CCCNC1 [AZD7762] (partner 0.2 µM)
Outline: as §1

Cell Line | relative viability (Selisistat + Lapatinib; first compound 0.4 µM) | relative viability (Selisistat + Lapatinib; first compound 1.265 µM) | relative viability (Selisistat + Lapatinib; first compound 12.65 µM) | relative viability (Selisistat + Lapatinib; first compound 40 µM) | relative viability (Selisistat + Foretinib; first compound 0.4 µM) | relative viability (Selisistat + Foretinib; first compound 1.265 µM) | relative viability (Selisistat + Foretinib; first compound 4 µM) | relative viability (Selisistat + Foretinib; first compound 12.65 µM) | relative viability (Selisistat + Foretinib; first compound 40 µM) | relative viability (Serdemetan + OSI-027; first compound 0.04 µM) | relative viability (Serdemetan + OSI-027; first compound 0.1265 µM) | relative viability (Serdemetan + OSI-027; first compound 0.4 µM) | relative viability (Serdemetan + OSI-027; first compound 1.265 µM) | relative viability (Serdemetan + OSI-027; first compound 4 µM) | relative viability (Serdemetan + AZD7762; first compound 0.04 µM) | relative viability (Serdemetan + AZD7762; first compound 0.1265 µM) | relative viability (Serdemetan + AZD7762; first compound 0.4 µM) | relative viability (Serdemetan + AZD7762; first compound 1.265 µM) | relative viability (Serdemetan + AZD7762; first compound 4 µM) | relative viability (Selisistat + Lapatinib; first compound 4 µM)
NCI-H1993 | 0.683 | 0.751 | 0.913 | 0.806 | 0.745 | 0.798 | 0.696 | 0.949 | 0.707 | 0.552 | 0.614 | 0.665 | 0.521 | 0.533 | 0.789 | 0.897 | 0.588 | 0.778 | 0.726 | 
NCI-H2085 | 0.818 | 0.797 | 0.753 | 0.724 | 0.971 | 0.98 | 0.873 | 0.881 | 0.884 | 0.701 | 0.702 | 0.593 | 0.61 | 0.764 | 0.995 | 0.916 | 0.974 | 0.801 | 0.792 | 0.725
NCI-H2087 | 1 | 1.13 | 0.946 | 1.03 | 1.09 | 1.12 |  | 1.01 | 1.05 | 0.548 | 0.641 | 0.573 | 0.324 | 0.241 | 1.23 | 0.828 | 0.778 | 0.494 | 0.535 | 0.653
NCI-H2126 | 0.828 | 0.775 | 0.794 | 0.856 | 1.27 | 1.16 | 1.17 | 1.32 | 1.16 | 0.7 | 0.757 | 0.611 | 0.574 | 0.625 | 0.924 | 1.04 | 0.923 | 0.932 | 1.04 | 0.623
NCI-H2170 | 0.265 | 0.272 | 0.28 | 0.253 | 1.11 | 1 | 0.943 | 1.03 | 1.08 | 0.686 | 0.737 | 0.635 | 0.367 | 0.73 | 0.891 | 0.964 | 0.873 | 0.746 | 0.758 | 0.268
NCI-H2347 | 1.06 | 0.943 | 0.882 | 0.983 | 0.918 | 1.04 |  | 1.06 | 0.989 | 0.412 | 0.501 | 0.431 | 0.4 | 0.258 | 0.673 | 0.686 | 0.668 | 0.462 | 0.406 | 0.482
NCI-H2405 | 1.01 |  | 1.03 | 1.09 | 1.06 | 1.09 | 1.07 | 1.06 | 1.02 | 0.591 | 0.602 | 0.657 | 0.622 | 0.594 | 0.747 | 0.721 | 0.721 | 0.683 | 0.625 | 
NCI-H3122 | 1.01 | 1.01 | 1.05 | 1.1 | 0.996 | 0.942 | 0.881 | 0.97 | 1.03 | 0.98 | 0.949 | 0.943 | 0.322 | 0.974 | 1 | 0.975 | 1.03 | 0.929 | 0.71 | 0.772
PC-3 [JPC-3] | 0.439 | 0.457 | 0.487 | 0.417 | 1.07 | 1.04 | 1.01 | 1.07 | 1.06 | 0.83 | 0.741 | 0.58 | 0.749 | 0.831 | 0.823 | 0.759 | 0.802 | 0.591 | 0.71 | 0.398
PC-14 | 0.371 | 0.356 | 0.294 | 0.342 | 0.946 | 0.982 | 0.826 | 0.908 | 0.946 | 0.843 | 0.767 | 0.139 | 0.759 | 0.514 | 0.327 | 0.357 | 0.204 | 0.304 | 0.161 | 0.218
RERF-LC-KJ | 0.857 | 0.854 | 0.811 | 0.831 | 0.902 | 0.783 | 0.84 | 0.829 | 0.803 | 0.589 | 0.711 | 0.442 | 0.498 | 0.401 | 1.03 | 0.547 | 0.806 | 0.897 | 0.94 | 0.793

— the supplement of paper PMC10307832
